In PubChem BioAssay AID652166 (The Scripps Research Institute Molecular Screening Center, 2013) one finds IC50 data, which are given here for eleven molecules.

The experiment concerns NOD2-RIPK2 signaling cell assay, absorbance 620 nm. Description: NOD2-RIPK2 signaling inhibitors, IC50, late-stage follow-up, cell-based, absorbance 620 nm (AID 652166).

Active and inactive are the calls of the source. No rule for the calls is given here.

As a reminder, the IC50 is the concentration at which inhibition is half-maximal. For `COc1ccc(C(C[N+](=O)[O-])n2nc(C)cc2C)cc1` (stereo unspecified), the IC50 was > 10 µM (inactive). Then `Cc1ccc(S(=O)(=O)N2CCCCCC2)cc1[N+](=O)[O-]`, with > 10 µM (inactive); and `Cc1ncc([N+](=O)[O-])n1Cc1ccc(Cl)c(Cl)c1`, with > 10 µM (inactive); and `Cc1cc(S(=O)(=O)N2CCCCCC2)ccc1F`, with > 10 µM (inactive). For the molecule `O=[N+]([O-])c1cccc(S(=O)(=O)N2CCCCCC2)c1`, the IC50 is > 10 µM (inactive).

As to `Cc1nc([N+](=O)[O-])c(Br)n1Cc1ccc(Cl)c(Cl)c1`, the IC50 was > 10 µM (inactive). The result for `O=S(=O)(c1ccccc1)N1CCCCCC1` reads > 10 µM (inactive). Take `Cc1ccc(C(C[N+](=O)[O-])n2nc(C)cc2C)cc1` (stereo unspecified): the IC50 was > 10 µM (inactive). Then `O=S(=O)(c1ccc(F)cc1)N1CCCCCC1`, with > 10 µM (inactive); and `O=[N+]([O-])c1cc(S(=O)(=O)N2CCCCCC2)ccc1F`, with > 10 µM (inactive); and `Cc1nc([N+](=O)[O-])c(Br)n1Cc1ccccc1`, with > 10 µM (inactive).
